Test results taken from US20050148633A1 (priority 2003, published 2005).
pEC50, pIC50: −log10 of the molar value.

Key:
Assay type in all cases: cell-based
IL-13 = experiment: Cytokine inhibition in PHA-stimulated primary human PBMCs: IL-13; conditions: PBMC
Procedure: (§1) Cytokine production was measured using commercially available human ELISA assay kits (from Cell Science, Inc.) following the manufacturers instructions.

GM-CSF = experiment: Cytokine inhibition in PHA-stimulated primary human PBMCs: GM-CSF; conditions: PBMC
Procedure: as §1

IL-2 production = experiment: Inhibition of IL-2 production in PHA-activated Jurkat cells (ELISA); conditions: Homo sapiens
Procedure: Jurkat cells were placed in a 96 well plate (0.5 million cells per well in 1% FBS medium) then test compounds of this invention were added at different concentrations. After 10 minutes, the cells were activated with PHA (final concentration 2.5 μg/mL) and incubated for 20 hours at 37° C. under CO2. The final volume was 200 μL. Following incubation, the cells were centrifuged and the supernatants collected and stored at −70° C. prior to assaying for IL-2 production. A commercial ELISA kit (IL-2 Eli-pair, Diaclone Research, Besancon, France) was used to detect production of IL-2, from which dose response curves were obtained. The IC50 value was calculated as the concentration at which 50% of maximum IL-2 production after stimulation was inhibited versus a non-stimulation control.

IL-4 = experiment: Cytokine inhibition in PHA-stimulated primary human PBMCs: IL-4; conditions: PBMC
Procedure: as §1

IL-2 = experiment: Cytokine inhibition in PHA-stimulated primary human PBMCs: IL-2; conditions: PBMC
Procedure: as §1

INF-γ = experiment: Cytokine inhibition in PHA-stimulated primary human PBMCs: INF-γ; conditions: PBMC
Procedure: as §1

IL-5 = experiment: Cytokine inhibition in PHA-stimulated primary human PBMCs: IL-5; conditions: PBMC
Procedure: as §1

IL-10 = experiment: Cytokine inhibition in PHA-stimulated primary human PBMCs: IL-10; conditions: PBMC
Procedure: as §1

TNF-α = experiment: Cytokine inhibition in PHA-stimulated primary human PBMCs: TNF-α; conditions: PBMC
Procedure: as §1

TRPM4 = target: T1, TRPM4 (Homo sapiens, UniProt Q8TD43); experiment: Activation of TRPM4 channel, whole-cell patch clamp in Jurkat cells and HEK-293 cells overexpressing TRPM4; conditions: free intracellular calcium 300 nM
T1 construct: FLAG (N); expressed in transfected cells; host or cells: HEK 293 (tetracycline-induced FLAG-humanTRPM4/pCDNA4/TO); also Jurkat cells (endogenous TRPM4)
T1 sequence (Q8TD43 whole entry): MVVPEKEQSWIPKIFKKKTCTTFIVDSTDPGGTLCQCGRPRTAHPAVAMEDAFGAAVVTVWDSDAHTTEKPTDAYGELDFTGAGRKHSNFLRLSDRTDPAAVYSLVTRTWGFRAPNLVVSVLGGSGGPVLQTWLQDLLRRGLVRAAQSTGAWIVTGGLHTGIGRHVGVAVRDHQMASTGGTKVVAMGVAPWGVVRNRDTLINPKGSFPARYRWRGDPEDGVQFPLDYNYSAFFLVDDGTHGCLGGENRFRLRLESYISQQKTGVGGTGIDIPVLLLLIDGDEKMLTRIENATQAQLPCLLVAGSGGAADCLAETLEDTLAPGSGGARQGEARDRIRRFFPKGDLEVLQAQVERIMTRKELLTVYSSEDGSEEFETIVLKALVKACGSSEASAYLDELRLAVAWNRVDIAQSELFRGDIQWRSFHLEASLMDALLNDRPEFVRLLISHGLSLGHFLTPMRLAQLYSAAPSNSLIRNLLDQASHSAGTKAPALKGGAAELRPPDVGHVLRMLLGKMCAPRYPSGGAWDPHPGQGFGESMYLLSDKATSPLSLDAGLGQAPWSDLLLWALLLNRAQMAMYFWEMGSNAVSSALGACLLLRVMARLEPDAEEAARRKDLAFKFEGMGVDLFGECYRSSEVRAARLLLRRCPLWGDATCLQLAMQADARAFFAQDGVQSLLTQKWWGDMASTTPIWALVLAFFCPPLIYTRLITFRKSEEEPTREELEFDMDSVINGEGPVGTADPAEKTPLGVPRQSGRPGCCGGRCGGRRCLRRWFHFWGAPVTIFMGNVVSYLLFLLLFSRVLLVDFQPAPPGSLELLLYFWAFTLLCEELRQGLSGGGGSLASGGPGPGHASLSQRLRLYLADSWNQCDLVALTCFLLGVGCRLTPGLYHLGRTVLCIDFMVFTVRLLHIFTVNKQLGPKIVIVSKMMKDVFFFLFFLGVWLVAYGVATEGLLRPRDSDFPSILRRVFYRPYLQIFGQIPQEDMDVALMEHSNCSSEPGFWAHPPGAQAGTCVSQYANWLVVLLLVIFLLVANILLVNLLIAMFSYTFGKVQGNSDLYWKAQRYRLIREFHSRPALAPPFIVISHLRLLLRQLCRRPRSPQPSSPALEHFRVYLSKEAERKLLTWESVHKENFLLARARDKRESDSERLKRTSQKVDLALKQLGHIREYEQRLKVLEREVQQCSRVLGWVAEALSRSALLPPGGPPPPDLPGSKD
Procedure: Human leukemic T cells (Jurkat cells) and HEK 293 cells transfected with the FLAG-humanTRPM4/pCDNA4/TO construct were grown on glass coverslips with DMEM medium supplemented with 10% FBS, blasticidin (5 μg/mL) and zeocin ([…]). TRPM4 expression was induced one day before use by adding 1 μg/mL tetracycline to the culture medium and patch clamp experiments were performed 16-24 hours post-induction (for additional details see Launay et al. (2000)).
Patch clamp experiments were performed in the tight-seal whole-cell configuration at 21-25° C. High resolution current recordings were acquired by a computer-based patch clamp amplifier system (EPC-9, HEKA, Lambrecht, Germany). Patch pipettes had resistances between […] after filling with the standard intracellular solution. […] Capacitive currents and series resistance were determined and corrected before each voltage ramp using the automatic capacitance compensation of the EPC-9. The low resolution temporal development of membrane currents was assessed by extracting the current amplitude at −80 mV or +80 mV from individual ramp current records.
TRPM4 currents were measured in Jurkat cells and HEK-293 cells overexpressing TRPM4. […]

RBL cells = experiment: Inhibition of degranulation in RBL cells; conditions: Rattus norvegicus, anti-DNP IgE / anti-IgE, read-out: concentration at which 50% of degranulation is inhibited
Procedure: Procedure: • The day before the assay was performed, RBL cells, that had been grown to confluence in a 96 well plate, were incubated at 37° C. for at least 2 hours. The medium was replaced in each well with 100 μL of fresh medium containing of anti-DNP IgE.
On the following day, the cells were washed once with PRS (2.6 mM glucose and 0.1% BSA) and 160 μL of PRS was added to each well. The test compound was addded to a well in a 20 μL solution at 10× of the desired concentration and incubated for 20 to 40 minutes at 37° C. 20 μL of 10× mouse anti-IgE (10 μL/mL). Maximum degranulation occurred between 15 to 40 minutes after addition of anti-IgE.

[1] = PHA 2.5 μg/mL, 20 hours, value bins

| SMILES | pIC50 (IL-2 production; [1]) | other results |
| --- | --- | --- |
| O=C(Nc1ccc(-c2ccccc2C(F)(F)F)c(C(F)(F)F)c1)c1cccc(F)c1F [Compound 4, N-(2,2′-Bis-trifluoromethyl-biphenyl-4-yl)-2,3-difluoro-benzamide] | – | pIC50 (IL-2 production; PHA, bin 500 nM-1 μM): 6.00 to 6.30 |
| O=C(Nc1ccc(-c2ccccc2C(F)(F)F)cc1)c1ccccn1 [Compound 25, Pyridine-2-carboxylic acid (2′-trifluoromethyl-biphenyl-4-yl)-amide] | – | pIC50 (IL-2 production; PHA, bin >1 μM): < 6.00 |
| COc1ccc(OC)c(-c2ccc(NC(=O)c3snnc3C)cc2)c1 [Compound 58, 4-methyl-[1,2,3]-thiadiazole-5-carboxylic acid (2′,5′-dimethoxy-biphenyl-4-yl)-amide] | > 7.00 | – |
| O=C(Nc1ccc(-c2cc(C(F)(F)F)ccc2C(F)(F)F)cc1)c1cccc(F)c1F [Compound 18, N-(2′,5′-Bis-trifluoromethyl-biphenyl-4-yl)-2,3-difluoro-benzamide] | > 7.00 | – |
| COc1ccc(Cl)cc1-c1ccc(NC(=O)c2cccc(F)c2F)cc1 [Compound 44, N-(2′-methoxy-5′-chloro-biphenyl-4-yl)-2,3-difluoro-benzamide] | > 7.00 | – |
| COc1ccc(C(C)=O)cc1-c1ccc(NC(=O)c2snnc2C)cc1 [Compound 71, 4-methyl-[1,2,3]-thiadiazole-5-carboxylic acid (2′-methoxy-5′-acetylbiphenyl-4-yl)-amide] | 6.30 to 7.00 | – |
| COc1ccc(C)cc1-c1ccc(NC(=O)c2ccncc2C)cc1 [Compound 69, 3-methyl-pyridine-4-carboxylic acid (2′-methoxy-5′-methylbiphenyl-4-yl)-amide] | > 7.00 | – |
| Cc1cccc(C(=O)Nc2ccc(-c3cc(C(F)(F)F)ccc3C(F)(F)F)cc2)c1C [Compound 53, N-(2′,5′-bis-trifluoromethyl-biphenyl-4-yl)-2,3-dimethylbenzamide] | > 7.00 | – |
| O=C(Nc1ccc(-c2cc(C(F)(F)F)ccc2C(F)(F)F)cc1)c1ccccc1O [Compound 49, N-(2′,5′-bis-trifluoromethyl-biphenyl-4-yl)-2-hydroxybenzamide] | – | pIC50 (IL-2 production; PHA, bin 500 nM-1 μM): 6.00 to 6.30 |
| COc1ccc(Cl)cc1-c1ccc(NC(=O)c2ccncc2F)cc1 [Compound 67, 3-fluoro-pyridine-4-carboxylic acid (2′-methoxy-5′-chlorobiphenyl-4-yl)-amide] | > 7.00 | – |
| COc1ccc(CCCOC(Cn2ccnc2)c2ccc(OC)cc2)cc1 (centres unmarked) [SKF96365, reference compound] | – | pIC50 (RBL cells): < 4.70 |
| O=C(Nc1ccc(-c2cc(C(F)(F)F)ccc2C(F)(F)F)cc1)c1cccc2c1OCCO2 [Compound 61, 2,3-dihydro-benzo[1,4]dioxine-5-carboxylic acid (2′,5′-bis-trifluoromethyl-biphenyl-4-yl)-amide] | – | pIC50 (IL-2 production; PHA, bin 500 nM-1 μM): 6.00 to 6.30 |
| O=C(Nc1ccc(-c2cc(Cl)ccc2OC(F)F)cc1)c1ccncc1F [Compound 72, 3-fluoro-pyridine-4-carboxylic acid (2′-difluoromethoxy-5′-chlorobiphenyl-4-yl)-amide] | > 7.00 | – |
| O=C(Nc1ccc(-c2ccccc2C(F)(F)F)cc1)c1cnccn1 [Compound 26, Pyrazine-2-carboxylic acid (2′-trifluoromethyl-biphenyl-4-yl)-amide] | – | pIC50 (IL-2 production; PHA, bin >1 μM): < 6.00 |

Further lines, with some results ahead:

| pIC50 (IL-2 production; [1]) | SMILES | other results |
| --- | --- | --- |
| > 7.00 | CSc1ccccc1-c1ccc(NC(=O)c2ccncc2C)cc1 [Compound 75, 3-methyl-pyridine-4-carboxylic acid (2′-methylsulfanyl-biphenyl-4-yl)-amide] | pIC50 (IL-13): 7.82; pIC50 (GM-CSF): 6.82; pIC50 (IL-4): 6.99; pIC50 (IL-2): 8.40; pIC50 (INF-γ): 7.64; pIC50 (IL-5): 8.15; pIC50 (IL-10): < 6.00; pIC50 (TNF-α): 7.09 |
| > 7.00 | O=C(Nc1ccc(-c2cc(C(F)(F)F)ccc2Cl)cc1)c1cccc(F)c1F [Compound 23] | pEC50 (TRPM4): 7.30 to 7.70 |
| > 7.00 | Cc1nnsc1C(=O)Nc1ccc(-c2cc(C(F)(F)F)ccc2C(F)(F)F)cc1 [Compound 24, 4-Methyl-[1,2,3]thiadiazole-5-carboxylic acid (2′,5′-bis-trifluoromethyl-biphenyl-4-yl)-amide] | pEC50 (TRPM4): 7.30 to 7.70 |
| > 7.00 | COc1ccc(OC)c(-c2ccc(NC(=O)c3ccccc3C)cc2)c1 [Compound 59, N-(2′,5′-dimethoxy-biphenyl-4-yl)-2-methylbenzamide] | – |
| > 7.00 | Cc1cnccc1C(=O)Nc1ccc(-c2cc(C(F)(F)F)ccc2C(F)(F)F)cc1 [Compound 64, 3-methyl-pyridine-4-carboxylic acid (2′,5′-bis-trifluoromethyl-biphenyl-4-yl)-amide] | – |
| > 7.00 | Cc1c(F)cccc1C(=O)Nc1ccc(-c2cc(C(F)(F)F)ccc2C(F)(F)F)cc1 [Compound 55, N-(2′,5′-bis-trifluoromethyl-biphenyl-4-yl)-2-methyl-3-fluorobenzamide] | – |
| > 7.00 | CCOc1ccc(Cl)cc1-c1ccc(NC(=O)c2ccncc2C)cc1 [Compound 82, 3-methyl-pyridine-4-carboxylic acid (2′-ethoxy-5′-chlorobiphenyl-4-yl)-amide] | – |
| > 7.00 | CCc1ccc(CC)c(-c2ccc(NC(=O)c3ccncc3C)cc2)c1 [Compound 79, 3-methyl-pyridine-4-carboxylic acid (2′,5′-diethylbiphenyl-4-yl)-amide] | – |
